According to ChEMBL document CHEMBL5113374, “Research progress in biological activities of isochroman derivatives” (Eur J Med Chem, 2021):
Converted amounts (≈) assume the structure as drawn.

Experiments:
[1] = Displacement of [3H]SCH-23390 from porcine striatum dopamine D2 receptor incubated for 30 mins by radioligand competition binding assay based scintillation counter analysis; type: tissue-based, Sus scrofa
D(1A) dopamine receptor = D(1A) dopamine receptor (Sus scrofa, UniProt P50130); assay: Displacement of [3H]SCH-23390 from porcine striatum dopamine D1 receptor incubated for 30 mins by radioligand competition binding assay based scintillation counter analysis; type: tissue-based
Sequence of D(1A) dopamine receptor (P50130 whole entry): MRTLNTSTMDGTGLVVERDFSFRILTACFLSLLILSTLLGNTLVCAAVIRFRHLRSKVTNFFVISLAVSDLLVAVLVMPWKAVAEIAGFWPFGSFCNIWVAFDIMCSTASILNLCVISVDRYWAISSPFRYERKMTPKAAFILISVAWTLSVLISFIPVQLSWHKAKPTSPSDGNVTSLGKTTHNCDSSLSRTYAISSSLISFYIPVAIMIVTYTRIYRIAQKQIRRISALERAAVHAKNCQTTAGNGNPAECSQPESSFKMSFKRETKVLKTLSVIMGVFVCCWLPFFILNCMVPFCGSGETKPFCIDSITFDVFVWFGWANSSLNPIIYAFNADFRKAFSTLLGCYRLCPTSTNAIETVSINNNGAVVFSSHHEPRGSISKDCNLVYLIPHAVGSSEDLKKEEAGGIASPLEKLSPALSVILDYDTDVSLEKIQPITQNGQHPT

Acetylcholinesterase [2] = target: T1, Acetylcholinesterase (Homo sapiens, UniProt P22303); assay: Inhibition of AChE in human erythrocytes using acetylthiocholine iodide as substrate at 50 uM incubated for 20 mins by DTNB reagent based Ellman's method; type: cell-based; settings: Erythrocyte
T1 sequence (P22303 whole entry, the tested form may be a part): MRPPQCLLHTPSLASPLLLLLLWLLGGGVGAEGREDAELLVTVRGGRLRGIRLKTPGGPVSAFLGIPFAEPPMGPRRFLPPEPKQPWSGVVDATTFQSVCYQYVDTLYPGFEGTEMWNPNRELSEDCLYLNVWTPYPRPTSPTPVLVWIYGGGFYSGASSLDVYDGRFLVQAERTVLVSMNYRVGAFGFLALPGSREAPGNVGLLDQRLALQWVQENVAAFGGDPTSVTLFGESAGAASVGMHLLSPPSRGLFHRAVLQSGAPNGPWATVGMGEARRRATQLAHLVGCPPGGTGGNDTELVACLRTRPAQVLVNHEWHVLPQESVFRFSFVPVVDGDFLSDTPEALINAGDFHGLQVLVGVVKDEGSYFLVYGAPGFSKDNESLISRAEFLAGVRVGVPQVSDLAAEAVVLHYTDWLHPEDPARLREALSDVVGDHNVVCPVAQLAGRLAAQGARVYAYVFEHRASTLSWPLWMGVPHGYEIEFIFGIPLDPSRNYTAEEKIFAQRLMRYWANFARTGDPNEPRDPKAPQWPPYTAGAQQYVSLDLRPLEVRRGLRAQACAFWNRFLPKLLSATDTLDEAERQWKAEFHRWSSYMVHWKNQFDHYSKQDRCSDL

Klebsiella pneumoniae = assay: Antibacterial activity against Klebsiella pneumoniae assessed as bacterial growth inhibition incubated for 24 hrs by disk diffusion assay; type: functional
Escherichia coli = assay: Antibacterial activity against Escherichia coli ATTC-25922 assessed as bacterial growth inhibition incubated for 24 hrs by disk diffusion assay; type: functional
Staphylococcus aureus = assay: Antibacterial activity against Staphylococcus aureus ATTC-25923 assessed as bacterial growth inhibition incubated for 24 hrs by disk diffusion assay; type: functional
Pseudomonas aeruginosa = assay: Antibacterial activity against Pseudomonas aeruginosa ATTC-27853 assessed as bacterial growth inhibition incubated for 24 hrs by disk diffusion assay; type: functional
L5178Y = assay: Cytotoxicity against […] assessed as inhibition of cell viability at 10 ug/ml; type: functional; settings: Mus musculus
Mus musculus [3] = species on record: Mus musculus; assay: Analgesic activity in acetic acid induced mouse assessed as assessed as reduction in acetic acid induced writhing […]; type: functional, organism-based
[4] = target: Glutamate NMDA receptor (Rattus norvegicus) (UniProt P35439+Q00959+Q00960+Q00961+Q62645+Q8VHN2+Q9R1M7); assay: Displacement of 3H-(+)-MK 801 from NMDA receptor in rat brain incubated for 80 mins by liquid scintillation counting method; type: tissue-based; settings: filed as antagonist
Rattus norvegicus [5] = species on record: Rattus norvegicus; assay: Antiallergic activity in Wistar rat abdominal cavity assessed as inhibition of C48/80-induced histamine release at 0.0005 M incubated for 30 mins by OPT-fluorophore based spectrofluorometric analysis; type: functional; settings: 0.5 h
Mus musculus [6] = assay: Analgesic activity in po dosed phenylquinone induced mouse assessed as assessed as reduction in phenylquinone induced writhing; type: functional
Rattus norvegicus [7] = assay: Antisecretory activity in Sprague-Dawley rat assessed as inhibition of gastric acid accumulation at 20 mg/kg,ID; type: functional
HL-60 = assay: Cytotoxicity against human HL-60 cells; type: functional, cell-based
NCI-H460 = assay: Antiproliferative activity against human NCI-H460 assessed as cell growth inhibition at 100 uM by SRB assay based spectrophotometric analysis; type: functional
[8] = Antioxidant activity assessed as hydroxy radical scavenging activity by HPLC analysis; type: functional
[9] = Antioxidant activity assessed as Ferric ion reducing activity by FRAP assay based HPLC analysis; type: functional
[10] = Antioxidant activity assessed as DPPH radical scavenging activity by HPLC analysis; type: functional
[11] = target: Sigma intracellular receptor 2 (Rattus norvegicus, UniProt Q5U3Y7); assay: Displacement of [3H]DTG from sigma 2 receptor in Sprague-Dawley rat liver membranes measured after 120 mins by liquid scintillation counting method; type: cell membranes, Membrane
Sequence of Sigma intracellular receptor 2 (Q5U3Y7 whole entry): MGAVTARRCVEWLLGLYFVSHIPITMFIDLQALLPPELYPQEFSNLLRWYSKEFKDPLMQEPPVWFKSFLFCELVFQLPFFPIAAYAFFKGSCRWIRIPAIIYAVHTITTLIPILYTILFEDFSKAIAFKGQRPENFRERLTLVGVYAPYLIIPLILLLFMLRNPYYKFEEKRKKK

Rattus norvegicus [12] = assay: Anti-ulcerative activity in aspirin induced Sprague-Dawley rat ulcer model assessed as inhibition of ulcer index at 20 mg/kg,po; type: functional
Lasiodiplodia theobromae = assay: Antifungal activity against Lasiodiplodia theobromae assessed as fungal growth inhibition at 100 ug/ml incubated for 4 days by disk method; type: functional; settings: 96 h, time 4 day
DNA gyrase [13] = target: T2, DNA gyrase (Escherichia coli, UniProt P0AES4+P0AES6); assay: Inhibition of Escherichia coli DNA gyrase assessed as inhibition of relaxation of supercoiled plasmid pBR322 DNA incubated for 2 hrs by ethidium bromide/bromophenol blue staining based agarose gel electrophoresis analysis; type: protein-complex assay
DNA gyrase [14] = target: T2, DNA gyrase; assay: Inhibition of Escherichia coli DNA gyrase supercoiling activity using pBR322 DNA as substrate incubated for 2 hrs by ethidium bromide/bromophenol blue staining based agarose gel electrophoresis analysis; type: protein-complex assay
DNA topoisomerase 2 = DNA topoisomerase 2 (Drosophila melanogaster, UniProt P15348); assay: Inhibition of Drosophila topoisomerase II assessed as relaxation of supercoiled plasmid pBR322 DNA incubated for 30 mins by ethidium bromide staining based agarose gel electrophoresis
Sequence of DNA topoisomerase 2 (P15348 whole entry, the tested form may be a part): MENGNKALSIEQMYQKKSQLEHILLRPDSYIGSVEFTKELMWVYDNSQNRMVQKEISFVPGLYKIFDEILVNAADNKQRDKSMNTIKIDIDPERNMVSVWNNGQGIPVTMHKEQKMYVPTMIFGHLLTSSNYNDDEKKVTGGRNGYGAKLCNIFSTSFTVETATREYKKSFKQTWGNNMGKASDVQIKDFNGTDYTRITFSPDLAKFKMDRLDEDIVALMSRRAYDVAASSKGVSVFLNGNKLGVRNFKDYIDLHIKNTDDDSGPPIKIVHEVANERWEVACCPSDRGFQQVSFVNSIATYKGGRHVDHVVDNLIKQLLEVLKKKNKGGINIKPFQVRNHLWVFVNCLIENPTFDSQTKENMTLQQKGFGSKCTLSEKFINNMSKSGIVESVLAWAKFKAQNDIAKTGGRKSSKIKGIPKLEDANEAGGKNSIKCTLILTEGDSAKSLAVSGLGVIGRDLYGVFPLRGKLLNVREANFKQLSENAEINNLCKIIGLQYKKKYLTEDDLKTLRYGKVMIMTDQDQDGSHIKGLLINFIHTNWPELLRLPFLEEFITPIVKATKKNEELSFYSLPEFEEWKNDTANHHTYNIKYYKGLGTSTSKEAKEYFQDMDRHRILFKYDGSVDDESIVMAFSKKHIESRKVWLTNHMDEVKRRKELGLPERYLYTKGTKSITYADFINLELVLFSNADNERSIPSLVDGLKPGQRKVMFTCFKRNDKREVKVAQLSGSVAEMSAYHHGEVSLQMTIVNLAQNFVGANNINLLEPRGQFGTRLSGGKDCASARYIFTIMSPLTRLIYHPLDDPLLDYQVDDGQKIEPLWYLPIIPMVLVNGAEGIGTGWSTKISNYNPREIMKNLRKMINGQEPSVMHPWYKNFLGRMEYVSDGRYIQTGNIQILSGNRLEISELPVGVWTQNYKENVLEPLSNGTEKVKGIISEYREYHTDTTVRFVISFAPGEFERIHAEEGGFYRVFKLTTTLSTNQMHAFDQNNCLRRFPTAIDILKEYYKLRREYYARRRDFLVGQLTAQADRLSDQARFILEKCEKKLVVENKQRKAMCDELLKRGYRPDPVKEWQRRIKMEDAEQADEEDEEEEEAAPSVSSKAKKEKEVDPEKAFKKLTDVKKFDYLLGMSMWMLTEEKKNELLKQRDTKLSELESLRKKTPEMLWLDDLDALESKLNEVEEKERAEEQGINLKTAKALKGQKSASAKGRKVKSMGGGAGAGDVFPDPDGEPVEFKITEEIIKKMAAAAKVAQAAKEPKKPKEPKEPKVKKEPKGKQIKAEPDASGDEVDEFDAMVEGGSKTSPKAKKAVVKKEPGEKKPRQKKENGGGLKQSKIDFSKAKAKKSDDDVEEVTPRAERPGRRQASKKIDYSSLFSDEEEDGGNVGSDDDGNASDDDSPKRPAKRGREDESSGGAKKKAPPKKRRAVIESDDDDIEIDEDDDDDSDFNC

Aspergillus fumigatus = assay: Antifungal activity against Aspergillus fumigatus assessed as fungal growth inhibition incubated for 1 hrs by disk diffusion assay; type: functional
Talaromyces marneffei = assay: Antifungal activity against Penicillium marneffei assessed as fungal growth inhibition incubated for 1 hrs by disk diffusion assay; type: functional
Aspergillus flavus = assay: Antifungal activity against Aspergillus flavus assessed as fungal growth inhibition incubated for 1 hrs by disk diffusion assay; type: functional
[15] = system: Trichophyton mentagrophytes; assay: Antifungal activity against Trichophyton mentagrophytes assessed as fungal growth inhibition incubated for 1 hrs by disk diffusion assay; type: functional
D(4) dopamine receptor = D(4) dopamine receptor (Homo sapiens, UniProt P21917); assay: Displacement of spiperone from human dopamine D4 receptor expressed in CHO cell membrane incubated for 1 hr by competitive radioligand binding assay based; type: cell membranes
Sequence of D(4) dopamine receptor (P21917 whole entry): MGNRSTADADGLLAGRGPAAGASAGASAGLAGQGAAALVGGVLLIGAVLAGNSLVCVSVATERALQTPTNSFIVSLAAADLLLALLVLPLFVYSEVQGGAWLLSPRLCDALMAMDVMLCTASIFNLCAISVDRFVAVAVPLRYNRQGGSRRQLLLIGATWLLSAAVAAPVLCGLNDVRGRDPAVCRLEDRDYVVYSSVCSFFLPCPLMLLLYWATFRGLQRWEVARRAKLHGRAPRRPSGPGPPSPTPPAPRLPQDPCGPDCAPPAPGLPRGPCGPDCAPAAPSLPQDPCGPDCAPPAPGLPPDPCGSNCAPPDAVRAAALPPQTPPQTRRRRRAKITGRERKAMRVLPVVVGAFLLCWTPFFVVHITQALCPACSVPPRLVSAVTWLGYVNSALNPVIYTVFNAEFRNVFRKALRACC

[16] = target: 5-hydroxytryptamine receptor 1B (Homo sapiens, UniProt P28222); assay: Displacement of [3H]serotonin from recombinant human 5-HT1B receptor expressed in HEK293 cells incubated for 1 hr by competitive radioligand binding assay based; type: cell-based
Sequence of 5-hydroxytryptamine receptor 1B (P28222 whole entry): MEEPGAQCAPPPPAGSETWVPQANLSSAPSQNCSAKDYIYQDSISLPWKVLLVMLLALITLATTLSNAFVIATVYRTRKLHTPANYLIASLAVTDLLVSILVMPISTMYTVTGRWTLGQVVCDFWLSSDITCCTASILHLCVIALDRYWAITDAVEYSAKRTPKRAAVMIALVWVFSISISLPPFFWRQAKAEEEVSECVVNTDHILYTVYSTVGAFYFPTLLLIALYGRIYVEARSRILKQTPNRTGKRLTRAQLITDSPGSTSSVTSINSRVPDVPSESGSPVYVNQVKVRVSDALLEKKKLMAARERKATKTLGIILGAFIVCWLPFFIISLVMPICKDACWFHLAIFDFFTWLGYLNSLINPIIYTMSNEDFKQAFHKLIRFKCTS

[17] = Selectivity index, ratio of Ki for displacement of [3H]-(+)-pentazocine from sigma1 receptor in guinea pig brain membrane to Ki for displacement of [3H]DTG from sigma 2 receptor in Sprague-Dawley rat liver membranes; type: cell membranes
[18] = target: Sigma non-opioid intracellular receptor 1 (Cavia porcellus, UniProt Q60492); assay: Displacement of [3H](+)-pentazocine from sigma 1 receptor in guinea pig brain membranes measured after 150 mins by liquid scintillation counting method; type: cell membranes, Membrane
Sequence of Sigma non-opioid intracellular receptor 1 (Q60492 whole entry): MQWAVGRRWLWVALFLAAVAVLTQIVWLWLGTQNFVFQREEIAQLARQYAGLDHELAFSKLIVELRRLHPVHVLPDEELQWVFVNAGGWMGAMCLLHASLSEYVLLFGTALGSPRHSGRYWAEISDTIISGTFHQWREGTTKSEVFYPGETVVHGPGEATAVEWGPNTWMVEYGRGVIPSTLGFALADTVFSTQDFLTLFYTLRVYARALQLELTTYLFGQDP

[19] = target: Beta-1 adrenergic receptor (Rattus norvegicus) (UniProt P18090); assay: Antagonist activity against beta1 adrenoceptor in Sprague-Dawley rat incubated for 5 mins; settings: filed as antagonist
Sequence of Beta-1 adrenergic receptor (Rattus norvegicus) (P18090 whole entry, looked up): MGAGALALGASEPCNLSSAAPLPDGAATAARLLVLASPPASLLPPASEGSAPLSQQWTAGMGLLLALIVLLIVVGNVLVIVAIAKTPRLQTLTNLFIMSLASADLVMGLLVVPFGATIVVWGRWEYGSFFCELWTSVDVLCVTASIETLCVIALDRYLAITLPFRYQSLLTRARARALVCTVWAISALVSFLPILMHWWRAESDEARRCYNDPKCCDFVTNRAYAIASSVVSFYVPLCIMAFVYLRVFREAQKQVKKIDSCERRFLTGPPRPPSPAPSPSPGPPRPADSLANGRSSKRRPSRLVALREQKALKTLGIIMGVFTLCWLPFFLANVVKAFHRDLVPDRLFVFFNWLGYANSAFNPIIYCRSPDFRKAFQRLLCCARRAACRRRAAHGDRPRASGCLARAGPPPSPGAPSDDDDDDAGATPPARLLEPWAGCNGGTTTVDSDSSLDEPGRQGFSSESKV

Acetylcholinesterase [20] = target: T1, Acetylcholinesterase; assay: Inhibition of AChE (unknown origin) using acetylthiocholine iodide as substrate incubated for 10 mins by DTNB reagent based Ellman's method
Homo sapiens = species on record: Homo sapiens; assay: Selectivity index, ratio of IC50 for […] (unknown origin)
Oocyte [21] = assay: Antagonist activity at human dopamine D4 receptor polymorphic variant 7 expressed in Xenopus laevis oocytes at 1 uM incubated for 2 mins; type: cell-based
Oocyte [22] = assay: Antagonist activity at human dopamine D4 receptor polymorphic variant 4 expressed in Xenopus laevis oocytes at 1 uM incubated for 2 mins; type: cell-based; settings: filed as antagonist
Oocyte [23] = assay: Antagonist activity at human dopamine D4 receptor polymorphic variant 2 expressed in Xenopus laevis oocytes at 1 uM incubated for 2 mins; type: cell-based; settings: filed as antagonist
KB = assay: Antiproliferative activity against human KB cells assessed as cell growth inhibition incubated for 48 hrs by coulter counter method; type: functional; settings: read-out: ID50 (the source's name)

Compound: NC[C@@H]1O[C@H](C23CC4CC(CC(C4)C2)C3)Cc2c1ccc(O)c2O
- Ki [1]: 1860 nM
- Ki (D(1A) dopamine receptor): 3.9 nM

Compound: COC1(C)Cc2c(C=O)c(O)c(C)c(O)c2CO1 (stereo unspecified)
- inhibition (Acetylcholinesterase [2]): -1%

Compound: COc1cc2c(c(OC)c1OC)C(C)(c1n[nH]c(=S)n1-c1ccc(C)cc1)OCC2 (stereo unspecified)
- MIC (Klebsiella pneumoniae): 6.25 µg/mL (≈ 14.6 µM)
- MIC (Escherichia coli): 6.25 µg/mL (≈ 14.6 µM)
- MIC (Staphylococcus aureus): 6.25 µg/mL (≈ 14.6 µM)
- MIC (Pseudomonas aeruginosa): 6.25 µg/mL (≈ 14.6 µM)

Compound: COc1cc(O)c(C)c2c1[C@H](O)O[C@@H](C)C2
- inhibition at 10 µg/mL (L5178Y): 40.4%

Compound: COc1cc2c(cc1OC)C1CN(C)CC(C2)O1 (stereo unspecified)
- EC50 (Mus musculus [3]): 77 mg/kg
- Activity [4]: 95%

Compound: c1ccc(CCN2CCC3(CC2)COCc2ccccc23)cc1
- inhibition in vivo at 500 µM (Rattus norvegicus [5]): 96%
- ED50 (Mus musculus [6]): 54 mg/kg

Compound: COC(=O)[C@]1(C)Cc2cc(OC)c(OC)cc2C2(CCN(C)CC2)O1.Cl
- EC50 (Mus musculus [3]): 44 mg/kg

Compound: CC(CC1OCCc2ccccc21)NCCc1ccccc1 (stereo unspecified)
- inhibition in vivo at 20 mg/kg (Rattus norvegicus [7]): 71.3%

Compound: Cc1c(O)cc(O)c2c1[C@H](C)[C@@H](C)O[C@@H]2c1ccc(O)cc1
- IC50 (HL-60): 22.7 µg/mL (≈ 75.6 µM)

Compound: CC(C)NC(C)CC1OCCc2ccccc21 (stereo unspecified)
- inhibition in vivo at 20 mg/kg (Rattus norvegicus [7]): 61%

Compound: COc1cc(O)cc2c1CO[C@@H](C)C2
- inhibition at 10 µg/mL (L5178Y): 16.1%

Compound: COc1cc2c(cc1OC)C1CNCC(C2)O1 (stereo unspecified)
- Activity [4]: 93%

Compound: COC(=O)Cc1cc2c(cc1C(=O)c1ccc(N)cc1)OCO2
- inhibition at 100 µM (NCI-H460): 4%

Compound: CN1CCC2(CC1)COCc1ccccc12
- ED50 (Mus musculus [6]): 12 mg/kg

Compound: CC1=Cc2c(C=O)c(O)c(Cc3c(O)c(C=O)c4c(c3O)COC(C)=C4)c(O)c2CO1
- inhibition (Acetylcholinesterase [2]): 46%

Compound: Oc1ccc2c(c1)OCC21Cc2cc(O)c(O)cc2C(O)O1 (stereo unspecified)
- IC50 [8]: 33.3 µM
- IC50 [9]: 78.2 µM
- IC50 [10]: 33.3 µM

Compound: N#CC1Cc2ccccc2C2(CCN(Cc3ccccc3)CC2)O1 (stereo unspecified)
- Ki [11]: 1590 nM

Compound: CC(CC1CCCc2ccccc21)NCC(C)c1ccccc1 (stereo unspecified)
- inhibition in vivo at 20 mg/kg (Rattus norvegicus [7]): 71.3%
- inhibition in vivo at 20 mg/kg (Rattus norvegicus [12]): 3.2%

Compound: CC1=Cc2c(C=O)c(O)c(C)c(O)c2CO1
- inhibition (Acetylcholinesterase [2]): -2%

Compound: CCOC1OC(C)Cc2c(C)c(O)cc(OC)c21 (stereo unspecified)
- inhibition at 100 µg/mL (Lasiodiplodia theobromae): 74%

Compound: CCCCCCC[C@H]1Cc2cc(O)c(C(=O)O)c(O)c2[C@@H](O)O1
- IC50 (DNA gyrase [13]): 27.7 µM
- IC50 (DNA gyrase [14]): 18.5 µM
- IC50 (DNA topoisomerase 2): 3.08 µM

Compound: COc1cccc(Nc2nnc(C3(C)OCCc4cc(OC)c(OC)c(OC)c43)s2)c1 (stereo unspecified)
- MIC (Klebsiella pneumoniae): 6.25 µg/mL (≈ 14.1 µM)
- MIC (Aspergillus fumigatus): 6.25 µg/mL (≈ 14.1 µM)
- MIC (Escherichia coli): 6.25 µg/mL (≈ 14.1 µM)
- MIC (Talaromyces marneffei): 6.25 µg/mL (≈ 14.1 µM)
- MIC (Staphylococcus aureus): 6.25 µg/mL (≈ 14.1 µM)
- MIC (Aspergillus flavus): 6.25 µg/mL (≈ 14.1 µM)
- MIC [15]: 6.25 µg/mL (≈ 14.1 µM)
- MIC (Pseudomonas aeruginosa): 6.25 µg/mL (≈ 14.1 µM)

Compound: CNC(=O)c1ccc2c(c1)CCO[C@H]2CCN1CCN(c2ccc(OC)cc2)CC1
- Ki (D(4) dopamine receptor): 3.7 µM
- Ki [16]: 5.78 µM

Compound: COc1cc(O)c(C)c2c1CO[C@@H](C)C2
- inhibition at 10 µg/mL (L5178Y): 3.4%

Compound: COc1cc(O)c(C)c2c1CO[C@@H](C)[C@@H]2O
- inhibition at 10 µg/mL (L5178Y): 26.2%

Compound: COC1(C)Cc2c(C=O)c(O)c(Cc3c(O)c(C=O)c4c(c3O)COC(C)(OC)C4)c(O)c2CO1 (stereo unspecified)
- inhibition (Acetylcholinesterase [2]): 53%

Compound: COc1cc(O)cc2c1C(=O)O[C@@H](C)C2
- inhibition at 10 µg/mL (L5178Y): 13.7%

Compound: COC1Cc2ccccc2C2(CCN(CCc3ccccc3)CC2)O1 (stereo unspecified)
- Ratio Ki [17]: 148
- Ki [18]: 2.07 nM

Compound: COC1=CC(=O)C(C)=C2C[C@H](C)OC=C12
- inhibition at 100 µg/mL (Lasiodiplodia theobromae): 69%

Compound: O=C1OCC2(CCN(Cc3ccccc3)CC2)c2ccccc21
- inhibition in vivo at 500 µM (Rattus norvegicus [5]): 31%
- ED50 (Mus musculus [6]): 100 mg/kg

Compound: CCCNCC(O)CC/N=C1\COCc2c1ccc(OC)c2OC (stereo unspecified)
- inhibition [19]: 62.9%

Compound: COc1cc(O)c(C)c2c1C(=O)O[C@@H](C)C2
- inhibition at 10 µg/mL (L5178Y): 59.5%

Compound: O=C1OCC2(CCN(CCc3ccccc3)CC2)c2ccccc21
- inhibition in vivo at 500 µM (Rattus norvegicus [5]): 94%
- ED50 (Mus musculus [6]): 60 mg/kg

Compound: COc1cc(O)c(C)c2c1[C@@H](OC)O[C@@H](C)C2
- inhibition at 100 µg/mL (Lasiodiplodia theobromae): 76%

Compound: CN/C(=N\CCSCc1nc[nH]c1C)NC#N [CIMETIDINE]
- inhibition in vivo at 20 mg/kg (Rattus norvegicus [7]): 51.6%

Compound: COc1cc2c(cc1OC)C(=O)/C(=C/c1cc[n+](Cc3ccc(F)cc3)cc1)OC2
- IC50 (Acetylcholinesterase [20]): 0.15 nM
- Ratio IC50 (Homo sapiens): > 5000

Compound: C[C@H]1Cc2cc3c(cc2[C@H](c2ccc(N)cc2)O1)OCO3
- inhibition at 100 µM (NCI-H460): 67%

Compound: COc1ccc(N2CCN(CC[C@@H]3O[C@@H](C)Cc4cc(OC)c(OC)cc43)CC2)cc1
- inhibition (Oocyte [21]): 33%
- inhibition (Oocyte [22]): 46%
- inhibition (Oocyte [23]): 66%

Compound: COC1(C)Cc2c(C=O)c(O)c(Cc3c(O)c(C=O)c4c(c3O)COC(C)=C4)c(O)c2CO1 (stereo unspecified)
- inhibition (Acetylcholinesterase [2]): 55%

Compound: CC12Cc3cc4c(cc3C(c3ccc(N)cc3)(OCO1)O2)OCO4 (stereo unspecified)
- inhibition at 100 µM (NCI-H460): 86%

Compound: Clc1ccc2oc(SCC3OCCc4ccccc43)nc2c1 (stereo unspecified)
- IC50 (KB): 6.1 µg/mL (≈ 18.4 µM)
